Laboratory results from patent publication US6329155A, “Methods of identifying agents which regulate release of amyloid precursor protein” (Massachusetts Institute of Technology, priority 1994, dated 2001).
Ends that are not written are not given here.

Key:
[1] = target: T1, PC-12 bradykinin receptors (Rattus norvegicus, UniProt P25023); experiment: Secretion of soluble APP (APPs) by PC-12 cells via bradykinin receptors; format: cell-based
T1 construct: functional APPs secretion
T1 sequence (P25023 1-396): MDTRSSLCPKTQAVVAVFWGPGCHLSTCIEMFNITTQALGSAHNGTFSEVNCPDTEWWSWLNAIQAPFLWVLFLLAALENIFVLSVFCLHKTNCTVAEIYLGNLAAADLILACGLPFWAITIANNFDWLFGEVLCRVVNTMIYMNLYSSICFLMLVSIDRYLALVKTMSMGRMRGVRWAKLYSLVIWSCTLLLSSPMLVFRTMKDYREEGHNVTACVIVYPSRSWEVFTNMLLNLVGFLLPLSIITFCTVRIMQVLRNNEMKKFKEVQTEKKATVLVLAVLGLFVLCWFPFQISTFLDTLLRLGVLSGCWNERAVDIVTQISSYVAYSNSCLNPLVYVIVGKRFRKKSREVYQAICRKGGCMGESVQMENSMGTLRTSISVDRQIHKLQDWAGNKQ
Protocol: PC-12 cell lines were obtained from American Type Culture Collection (CRL 1721) and grown in Dulbecco's modified Eagle's medium supplemented with 10% horse serum and 2.5% fetal bovine serum at 37° C. under a 5% carbon dioxide atmosphere. Cells were plated on collagen-coated culture dishes. For differentiation into the neuronal phenotype, 50 ng/ml nerve growth factor was added 24 hours after plating and differentiation was verified after three days by neurite outgrowth. Experiments were conducted with subconfluent monolayers approximately five days after plating.
Media were removed from culture dishes; cells were washed twice with serum-free N2 medium and experiments were done at 37° C. on a hot plate in serum-free N2 medium. Media were removed after incubation periods, desalted on sephadex G-25 columns with water as eluent, lyophilized and resuspended in 100 μl sample butter, and boiled for five minutes. Experiments were carried out in triplicate culture dishes and were repeated three to six times.
Cells were treated with 10 μM bradykinin or with vehicle (control) and secretion of APP was assessed over time, using Western blot and densitometry. […] Membranes were blocked, and probed with monoclonal antibody 22C11. Membranes were washed, and incubated with anti-mouse IgG conjugated to horseradish peroxidase. Bands were visualized with enhanced chemiluminescence using pre-flashed (linear) x-ray films. For densitometric analysis, bands were scanned with a Pharmacia LKB UltroScan XL laser densitometer set at 40 μm vertical interval size and […] horizontal slit width. Data were normalized to vehicle-treated controls which were always run within the same blots.

human m4 mAChR = experiment: APP release by human 293 cells transfected with m4 mAChR; format: cell-based; details: carbachol
wild-type 293 cells = experiment: APP release by wild-type (nontransfected) human 293 cells; format: cell-based; details: wild-type cell lines; carbachol
human m2 mAChR = experiment: APP release by human 293 cells transfected with m2 mAChR; format: cell-based; details: carbachol
[2] = test system: mAChR-transfected 293 cell lines; experiment: APP processing in mAChR-transfected 293 cell lines, subtype not stated (Western blot); format: cell-based, human
human m1 mAChR = target: T2, human m1 mAChR (Homo sapiens, UniProt P11229)
T2 sequence (P11229 1-460): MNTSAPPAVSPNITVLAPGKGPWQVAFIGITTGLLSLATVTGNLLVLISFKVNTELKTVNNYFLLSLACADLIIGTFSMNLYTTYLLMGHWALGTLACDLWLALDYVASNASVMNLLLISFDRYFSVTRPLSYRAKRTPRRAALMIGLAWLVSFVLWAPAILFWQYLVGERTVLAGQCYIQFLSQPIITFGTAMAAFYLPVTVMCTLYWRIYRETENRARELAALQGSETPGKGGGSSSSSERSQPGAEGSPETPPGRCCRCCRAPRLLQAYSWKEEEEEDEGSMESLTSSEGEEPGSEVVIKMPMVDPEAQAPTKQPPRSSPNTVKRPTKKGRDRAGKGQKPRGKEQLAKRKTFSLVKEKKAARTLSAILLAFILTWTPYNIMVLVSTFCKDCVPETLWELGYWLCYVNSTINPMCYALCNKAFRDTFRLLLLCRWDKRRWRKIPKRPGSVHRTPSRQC

human m3 mAChR = target: T3, human m3 mAChR (Homo sapiens, UniProt P20309); format: cell-based
T3 construct: expressed in transfected cells; m3 200,000 receptors per cell
T3 sequence (P20309 whole entry): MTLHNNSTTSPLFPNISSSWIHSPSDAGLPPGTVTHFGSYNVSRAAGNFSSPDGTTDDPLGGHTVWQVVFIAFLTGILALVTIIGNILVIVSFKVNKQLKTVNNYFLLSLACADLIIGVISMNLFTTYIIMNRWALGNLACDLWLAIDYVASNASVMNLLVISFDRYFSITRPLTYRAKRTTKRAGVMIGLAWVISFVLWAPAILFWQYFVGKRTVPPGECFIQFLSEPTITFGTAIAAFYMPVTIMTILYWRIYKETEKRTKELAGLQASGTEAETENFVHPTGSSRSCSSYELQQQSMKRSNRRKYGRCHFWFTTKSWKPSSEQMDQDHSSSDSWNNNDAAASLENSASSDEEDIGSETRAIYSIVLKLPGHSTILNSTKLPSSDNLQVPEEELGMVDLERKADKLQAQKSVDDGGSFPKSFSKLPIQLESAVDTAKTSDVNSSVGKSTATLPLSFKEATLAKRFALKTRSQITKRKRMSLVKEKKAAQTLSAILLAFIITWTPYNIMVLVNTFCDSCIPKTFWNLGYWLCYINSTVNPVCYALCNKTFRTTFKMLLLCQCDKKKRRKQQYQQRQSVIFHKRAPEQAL

[3] = test system: serotonin receptor subtype 5HT2; experiment: APP derivative release by 3T3 fibroblasts transfected with serotonin receptor subtype 5HT2; format: cell-based; details: 3T3 fibroblasts transfected with 5HT2; serum-deprived 24 hours
[4] = stimulation with carbachol, Western blot

## RPPGFSPFR [bradykinin]
[1]; NGF-differentiated PC-12 cells, 10 μM bradykinin vs vehicle
  secretion of soluble N-terminal APP derivatives (APPS) into the medium: increases
[1]; PC-12 cells without nerve growth factor
  APPs secretion in undifferentiated PC-12 cells: stimulates

## C[N+](C)(C)CCOC(N)=O [carbachol]
Human m4 mAChR
  basal release of APP fragments, effect of agonist: not stimulated
wild-type 293 cells
  basal release of APP fragments, effect of agonist: not stimulated
Human m2 mAChR
  basal release of APP fragments, effect of agonist: not stimulated
[2]; [4]
  128 kD APP derivative secreted into the culture medium: increase
  abundance of cell-associated 115 kD APP: remained unaffected
  abundance of cell-associated 141 kD APP: decreased

## CN[C@@H]1C[C@H]2O[C@@](C)([C@@H]1OC)n1c3ccccc3c3c4c(c5c6ccccc6n2c5c31)C(=O)NC4 [staurosporine]
Human m1 mAChR
  effect on receptor-activated (carbachol-induced) APP release: inhibited
Human m3 mAChR
  effect on receptor-activated (carbachol-induced) APP release: inhibited
[1]; PC-12 cells, added with bradykinin
  effect on bradykinin-induced APPS secretion: inhibited

## CNc1ccc2oc(C[C@H]3O[C@@]4(CC[C@H]3C)O[C@H]([C@H](C)C(=O)c3ccc[nH]3)[C@H](C)C[C@H]4C)nc2c1C(=O)O [A23187]
[2]; 10 μm ionophore, cell line not stated in text (FIG. 1B)
  stimulation of basal APP release by calcium ionophore alone: failure

## NCCc1c[nH]c2ccc(O)cc12 [Serotonin]
[3]
  release of N-terminal non-amyloidogenic APP derivatives: increases release
